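The compound was tested at five concentrations on cells cultured in 96-well plates, with a 48-hour exposure period. Abbreviation: GI50, concentration required for 50% inhibition of growth. TGI: total growth inhibition.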
Key:
Experiment in all cases: DTP human tumour cell line panel, 48 h
CAKI-1 renal = system: CAKI-1 renal
EKVX NSCLC = system: EKVX NSCLC
HCC-2998 colon = system: HCC-2998 colon
OVCAR-8 ovarian = system: OVCAR-8 ovarian
RXF 393 renal = system: RXF 393 renal
SF-539 CNS = system: SF-539 CNS
SK-MEL-28 melanoma = system: SK-MEL-28 melanoma
TK-10 renal = system: TK-10 renal
UO-31 renal = system: UO-31 renal
LOX IMVI melanoma = system: LOX IMVI melanoma

| Compound | GI50 (CAKI-1 renal) | TGI (CAKI-1 renal) | GI50 (EKVX NSCLC) | TGI (EKVX NSCLC) | GI50 (HCC-2998 colon) | TGI (HCC-2998 colon) | GI50 (OVCAR-8 ovarian) | TGI (OVCAR-8 ovarian) | GI50 (RXF 393 renal) | TGI (RXF 393 renal) | GI50 (SF-539 CNS) | TGI (SF-539 CNS) | GI50 (SK-MEL-28 melanoma) | TGI (SK-MEL-28 melanoma) | GI50 (TK-10 renal) | TGI (TK-10 renal) | GI50 (UO-31 renal) | TGI (UO-31 renal) | TGI (LOX IMVI melanoma) | GI50 (LOX IMVI melanoma) |
| --- | --- | --- | --- | --- | --- | --- | --- | --- | --- | --- | --- | --- | --- | --- | --- | --- | --- | --- | --- | --- |
| C[N+](C)=c1ccc2nc3c(cc(NCCCNc4cc5oc6cc(=[N+](C)C)ccc-6nc5c5ccccc45)c4ccccc43)oc-2c1 | 12.7 µM | 35.4 µM | 4.77 µM | 18.5 µM | 1.77 µM | 3.47 µM | 1.9 µM | 5.85 µM | 6.04 µM | 37.5 µM | 1.73 µM | 3.76 µM | 3.77 µM | 14.7 µM | 17.3 µM | 39.3 µM | 1.75 µM | 14 µM |  |  |
| CC(SCc1ccccc1)C(=O)O (stereo unspecified) |  | > 100 µM |  | > 100 µM |  |  |  | > 100 µM |  | > 100 µM |  | > 100 µM |  | > 100 µM |  | > 100 µM |  | > 100 µM | > 100 µM |  |
| COc1ccc(OC(C)C(=O)O)c2c(=O)ccccc12 (stereo unspecified) |  |  |  | > 100 µM |  | > 100 µM |  | > 100 µM |  | > 100 µM |  | > 100 µM |  | > 100 µM |  | > 100 µM |  | > 100 µM | > 100 µM |  |
| O=C1NC2C(O)CCCCC2C12CCCCC2 (stereo unspecified) |  | > 100 µM |  | > 100 µM |  |  |  | > 100 µM |  | > 100 µM |  | > 100 µM |  | > 100 µM |  |  |  | > 100 µM | > 100 µM |  |
| CC(=O)NN1C(=O)C(Cc2ccccc2)c2ccccc21 (stereo unspecified) |  | > 100 µM |  | > 100 µM |  | > 100 µM |  | > 100 µM |  |  |  | > 100 µM |  | > 100 µM |  | > 100 µM |  | > 100 µM | > 100 µM |  |
| C=C1C(=O)O[C@H]2C[C@@H]1C(=O)CC(C)CCCC(C)=CCC[C@@]2(C)O (stereo partly specified) |  |  |  | > 25 µM |  | > 25 µM |  | > 25 µM |  | > 25 µM |  | > 25 µM |  | > 25 µM |  | > 25 µM |  | > 25 µM | > 25 µM |  |
| c1ccc(OC2=NC3=S(S2)SC(Oc2ccccc2)=N3)cc1 |  | 34.3 µM |  | 48.3 µM |  | 35.2 µM |  | 57.6 µM |  | 24.2 µM |  | 54.6 µM |  |  |  | 33 µM |  | 36.3 µM | 43.4 µM |  |
| CC(=O)[CH-]C(=O)c1ccccc1.CC(=O)[CH-]C(=O)c1ccccc1.[O-]c1ccc2c(c1)OCO2.[O-]c1ccc2c(c1)OCO2.[Ti+4] | 29.5 µM | > 100 µM | 25.8 µM | 72.9 µM | 24.6 µM | 61.6 µM | 34.4 µM | > 100 µM |  |  | 28.4 µM | > 100 µM | 32.7 µM | > 100 µM |  |  | 35.9 µM | 94.3 µM | 55 µM | 18.2 µM |
| CC(=O)[O-].N.N.N.N.[Co+3].[O-][Cl+3]([O-])([O-])[O-].[OH3+] |  |  | > 100 µM | > 100 µM | > 100 µM | > 100 µM | > 100 µM | > 100 µM |  |  |  |  | > 100 µM | > 100 µM | > 100 µM | > 100 µM | 84.6 µM | > 100 µM | > 100 µM | > 100 µM |

Source: PubChem BioAssay (NCI)
